In patent publication US10800774B2, “Heterocyclic inhibitors of ATR kinase” (Board of Regents, The University of Texas System, priority 2017, dated 2020):
pIC50: −log10 of the molar value.

How the values were obtained:
[1] = target: ATR/ATRIP complex (Homo sapiens (Human), UniProt Q13535); assay: ATR/ATRIP enzymatic assay (Caliper-based); format: biochemical; conditions: FAM-labeled RAD17 peptide, ATP; read-out: ATR/ATRIP Enzyme IC50
Method: Human full-length FLAG-TEV-ATR and His6-ATRIP were co-expressed in HEK293 cells. […] The sample was loaded into a column, and then washed with buffer A three times. Protein was subsequently eluted with 2 ml of buffer B (buffer A+200 μg/ml 3×FLAG peptide).
The ability of new chemical matter to inhibit the ATR catalytic activity in this ATR/ATRIP complex was assessed using a Caliper-based assay. A 2× enzyme solution (i.e., 4 nM enzyme) was prepared using 1× Kinase Reaction Buffer (25 mM HEPES pH 8, 0.0055% Brij-35, 10 mM MnCl2, and 1 mM DTT). […] 10 μL of the 2× enzyme solution was transferred to an assay plate containing 60 nL of test compound (from a 3× serial dilution) in 100% DMSO. Following a 30 minute incubation at 28° C., 10 μL of the 2× peptide solution was then transferred to the same assay plate. The reaction was allowed to incubate at 28° C. for 6 hours. After adding […] of stop buffer (100 mM HEPES pH 7.5, 0.015% Brij-35, 0.2% Coating-3 Reagent (PerkinElmer, catalog # PN760050), and 50 mM EDTA), data were collected on a Caliper instrument. Conversion values were converted to inhibition values via the following equation: % inhibition=(max−conversion)/(max−min)*100, whereby “max” corresponds to the DMSO control and “min” corresponds to the low control. IC50 values were calculated using the following equation in XLFit: Y=Bottom+(Top−Bottom)/1+(IC50/X)^HillSlope).

[2] = tested on: ATR-driven phosphorylation of Chk1 kinase at Serine 345 in HT-29 cells; assay: pCHK1 cellular assay (CHK1 p-Ser345 AlphaScreen SureFire); conditions: Homo sapiens, HT-29, read-out: pCHK1 Cell IC50
Method: The microplate was incubated overnight (approximately 20 hours) at 37° C. with 5% CO2 and ambient 02. Stock solutions of the test compounds were prepared in 100% DMSO (Sigma, Catalog # D2650) and serially diluted 1:3 using 100% DMSO. Compounds were additionally diluted 1:33 in culture medium, and 10 ul/well were transferred to the tissue culture plate. Following the compound addition the microplate was incubated at 37° C. for 90 minutes. […] The cells were then washed with PBS and lysed using 10 uL/well […] ® Kit lysis buffer diluted to 1× in water (PerkinElmer Catalog # TGRCHK1S50K), with mixing on an orbital shaker at 500 rpm for 20 min at RT. Lysates were frozen at −20° C. overnight.
The pCHK1 ALPHASCREEN® signal was measured using an ENVISION® plate reader (PerkinElmer). IC50 values were calculated using a four-parameter logistic curve fit using Genedata Screener software. Percent of control for each compound concentration was calculated by the following formula: 100*(Compound-Min)/(Max-Min) where “Max” is the high control, DMSO, and “Min” is the low control, 5 uM ATR inhibitor.

Chain of ATR/ATRIP complex (Q13535 whole entry): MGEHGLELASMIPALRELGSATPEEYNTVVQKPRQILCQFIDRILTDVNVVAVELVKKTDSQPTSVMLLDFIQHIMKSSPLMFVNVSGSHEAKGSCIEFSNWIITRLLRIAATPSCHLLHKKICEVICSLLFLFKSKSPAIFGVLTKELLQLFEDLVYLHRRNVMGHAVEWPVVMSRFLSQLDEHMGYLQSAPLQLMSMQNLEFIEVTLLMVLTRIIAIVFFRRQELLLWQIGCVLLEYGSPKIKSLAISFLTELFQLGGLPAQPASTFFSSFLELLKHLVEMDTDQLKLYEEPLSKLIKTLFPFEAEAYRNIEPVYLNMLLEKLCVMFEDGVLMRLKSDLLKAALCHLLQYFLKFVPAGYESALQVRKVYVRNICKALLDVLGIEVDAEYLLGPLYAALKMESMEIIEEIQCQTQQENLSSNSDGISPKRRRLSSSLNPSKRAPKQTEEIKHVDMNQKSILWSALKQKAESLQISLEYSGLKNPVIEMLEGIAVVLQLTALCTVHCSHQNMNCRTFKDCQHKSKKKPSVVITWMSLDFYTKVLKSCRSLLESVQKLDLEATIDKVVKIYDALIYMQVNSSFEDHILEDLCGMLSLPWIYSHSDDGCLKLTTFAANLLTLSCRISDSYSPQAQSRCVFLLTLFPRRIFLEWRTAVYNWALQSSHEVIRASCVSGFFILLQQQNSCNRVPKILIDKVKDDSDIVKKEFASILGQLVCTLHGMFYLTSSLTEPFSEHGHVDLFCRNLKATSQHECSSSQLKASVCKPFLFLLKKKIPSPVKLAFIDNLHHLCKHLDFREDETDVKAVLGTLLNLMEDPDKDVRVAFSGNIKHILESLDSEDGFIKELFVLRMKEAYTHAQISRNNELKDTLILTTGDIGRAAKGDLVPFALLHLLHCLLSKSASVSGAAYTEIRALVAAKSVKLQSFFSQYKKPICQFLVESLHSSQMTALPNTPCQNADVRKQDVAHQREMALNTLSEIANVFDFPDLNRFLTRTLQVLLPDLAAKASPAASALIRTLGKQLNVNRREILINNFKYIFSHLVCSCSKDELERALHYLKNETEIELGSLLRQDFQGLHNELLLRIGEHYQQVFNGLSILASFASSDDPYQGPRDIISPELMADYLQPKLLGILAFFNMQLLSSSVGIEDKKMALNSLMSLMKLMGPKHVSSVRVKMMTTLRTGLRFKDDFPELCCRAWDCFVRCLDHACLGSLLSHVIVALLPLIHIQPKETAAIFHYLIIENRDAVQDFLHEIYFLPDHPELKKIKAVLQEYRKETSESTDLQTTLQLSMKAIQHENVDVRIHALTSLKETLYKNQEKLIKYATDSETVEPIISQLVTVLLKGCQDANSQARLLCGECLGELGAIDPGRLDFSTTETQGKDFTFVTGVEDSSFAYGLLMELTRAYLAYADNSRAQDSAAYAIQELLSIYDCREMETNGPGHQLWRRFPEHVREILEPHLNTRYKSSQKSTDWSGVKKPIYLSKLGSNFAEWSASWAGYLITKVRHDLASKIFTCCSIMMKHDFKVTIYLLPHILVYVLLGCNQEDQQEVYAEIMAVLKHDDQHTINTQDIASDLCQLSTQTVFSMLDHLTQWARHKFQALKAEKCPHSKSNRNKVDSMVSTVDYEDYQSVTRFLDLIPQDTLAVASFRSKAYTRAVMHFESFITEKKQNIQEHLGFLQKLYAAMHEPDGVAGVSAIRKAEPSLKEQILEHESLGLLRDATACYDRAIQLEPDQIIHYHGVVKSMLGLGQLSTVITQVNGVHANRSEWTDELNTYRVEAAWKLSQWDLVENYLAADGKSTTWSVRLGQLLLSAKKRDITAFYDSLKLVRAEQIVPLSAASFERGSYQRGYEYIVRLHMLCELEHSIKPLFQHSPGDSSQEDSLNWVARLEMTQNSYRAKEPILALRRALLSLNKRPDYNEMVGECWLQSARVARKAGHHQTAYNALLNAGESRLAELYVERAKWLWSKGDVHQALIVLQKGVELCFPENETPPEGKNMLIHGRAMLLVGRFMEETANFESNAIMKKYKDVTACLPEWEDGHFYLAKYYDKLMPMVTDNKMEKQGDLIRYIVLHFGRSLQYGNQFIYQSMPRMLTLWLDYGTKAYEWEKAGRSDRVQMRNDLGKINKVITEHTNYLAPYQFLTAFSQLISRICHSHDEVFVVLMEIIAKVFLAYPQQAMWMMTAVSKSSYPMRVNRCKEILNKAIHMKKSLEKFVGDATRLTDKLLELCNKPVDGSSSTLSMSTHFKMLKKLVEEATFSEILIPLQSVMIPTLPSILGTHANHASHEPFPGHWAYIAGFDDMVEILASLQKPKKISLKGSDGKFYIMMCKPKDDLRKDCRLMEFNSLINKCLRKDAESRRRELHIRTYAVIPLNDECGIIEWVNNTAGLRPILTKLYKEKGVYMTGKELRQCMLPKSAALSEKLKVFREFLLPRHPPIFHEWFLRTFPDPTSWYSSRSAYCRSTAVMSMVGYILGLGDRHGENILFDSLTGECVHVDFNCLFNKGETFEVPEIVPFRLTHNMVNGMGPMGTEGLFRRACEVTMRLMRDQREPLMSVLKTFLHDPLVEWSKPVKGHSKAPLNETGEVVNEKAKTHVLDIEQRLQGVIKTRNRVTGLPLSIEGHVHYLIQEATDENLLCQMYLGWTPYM
Chain of ATR/ATRIP complex (Q8WXE1 whole entry partner): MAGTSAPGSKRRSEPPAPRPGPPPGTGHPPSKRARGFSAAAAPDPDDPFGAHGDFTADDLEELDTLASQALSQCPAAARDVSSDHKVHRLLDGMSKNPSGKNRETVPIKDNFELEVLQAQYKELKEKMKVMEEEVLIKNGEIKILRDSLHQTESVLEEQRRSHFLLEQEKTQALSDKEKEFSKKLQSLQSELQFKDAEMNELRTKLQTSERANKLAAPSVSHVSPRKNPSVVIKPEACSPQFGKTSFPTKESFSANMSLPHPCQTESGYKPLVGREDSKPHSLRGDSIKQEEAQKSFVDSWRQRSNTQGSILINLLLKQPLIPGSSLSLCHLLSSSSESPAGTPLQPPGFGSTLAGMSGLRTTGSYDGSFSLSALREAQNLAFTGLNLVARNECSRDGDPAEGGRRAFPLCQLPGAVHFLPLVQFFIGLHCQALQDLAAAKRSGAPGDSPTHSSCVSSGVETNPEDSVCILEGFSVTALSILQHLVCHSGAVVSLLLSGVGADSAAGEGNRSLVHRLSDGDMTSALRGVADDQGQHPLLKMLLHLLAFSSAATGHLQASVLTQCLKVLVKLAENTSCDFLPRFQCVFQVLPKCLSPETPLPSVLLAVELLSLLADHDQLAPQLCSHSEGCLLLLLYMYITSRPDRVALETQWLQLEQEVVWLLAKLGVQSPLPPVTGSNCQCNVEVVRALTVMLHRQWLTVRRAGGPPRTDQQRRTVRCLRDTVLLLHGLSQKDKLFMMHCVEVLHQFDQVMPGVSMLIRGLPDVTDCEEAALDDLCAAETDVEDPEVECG

| SMILES | pIC50 [1] | pIC50 [2] |
| --- | --- | --- |
| CC(C)OC(=O)N1CCC(c2cc(N3CCOC[C@H]3C)nc(-c3ccnc4[nH]ccc34)n2)CC1 [Example 27, Propan-2-yl 4-{6-[(3R)-3-methylmorpholin-4-yl]-2-{1H-pyrrolo[2,3-b]pyridin-4-yl}pyrimidin-4-yl}piperidine-1-carboxylate] | 7.82 | 6.39 |
| C[C@@H]1COCCN1c1cc(C2CCN(C(=O)OCC3CC3)CC2)nc(-c2ccnc3[nH]ccc23)n1 [Example 28, Cyclopropylmethyl 4-{6-[(3R)-3-methylmorpholin-4-yl]-2-{1H-pyrrolo[2,3-b]-pyridin-4-yl}pyrimidin-4-yl}piperidine-1-carboxylate] | 7.77 | 6.57 |
| C[C@@H]1COCCN1c1cc([C@@]2(C)CCCS2(=O)=O)nc(-c2ccnc3[nH]ccc23)n1 [Example 30b, (R)-2-methyl-2-(6-((R)-3-methylmorpholino)-2-(1H-pyrrolo[2,3-b]pyridin-4-yl)pyrimidin-4-yl)tetrahydrothiophene 1,1-dioxide] | 8.22 | 6.97 |

Next, values leading:

| pIC50 [1] | pIC50 [2] | SMILES |
| --- | --- | --- |
| 7.80 | 6.86 | C[C@@H]1COCCN1c1cc(C2CCN(C(=O)CC3CC3)CC2)nc(-c2ccnc3[nH]ccc23)n1 [Example 25, 2-Cyclopropyl-1-(4-{6-[(3R)-3-methylmorpholin-4-yl]-2-{1H-pyrrolo[2,3-b]pyridin-4-yl}pyrimidin-4-yl}piperidin-1-yl) ethan-1-one] |
| 8.10 | 7.07 | C[C@@H]1COCCN1c1cc(C2CCCCS2(=O)=O)nc(-c2ccnc3[nH]ccc23)n1 (stereo partly drawn) [Example 26, 2-{6-[(3R)-3-Methyl-morpholin-4-yl]-2-{1H-pyrrolo[2,3-b]pyridin-4-yl}pyrimidin-4-yl}-1λ^6-thiane-1,1-dione] |
| 8.10 | 7.05 | C[C@@H]1COCCN1c1cc(C2(C)CCCS2(=O)=O)nc(-c2ccnc3[nH]ccc23)n1 (stereo partly drawn) [Example 29, 2-Methyl-2-(6-((R)-3-methylmorpholino)-2-(1H-pyrrolo[2,3-b]pyridin-4-yl)pyrimidin-4-yl)tetrahydrothiophene 1,1-dioxide] |
| 8.22 | 7.12 | C[C@@H]1COCCN1c1cc([C@]2(C)CCCS2(=O)=O)nc(-c2ccnc3[nH]ccc23)n1 [Example 30a, (S)-2-methyl-2-(6-((R)-3-methylmorpholino)-2-(1H-pyrrolo[2,3-b]pyridin-4-yl)pyrimidin-4-yl)tetrahydrothiophene 1,1-dioxide] |
